# Laboratory results from patent US20060057669A1, “Inactive transcription factor tif-ia and uses thereof” (priority 2002, published 2006).
# Like-named read-outs stand apart in the source and are kept apart here.
# Columns and labels:
# TIF-IB/SL1 = assay: Co-immunoprecipitation of TIF-IB/SL1 with TIF-IA mutants from HEK293T cells; type: binding, human
# Experimental: (B) A mutant that mimics phosphorylation of TIF-IA at S199 fails to interact with Pol I and TIF-IB. FLAG-tagged wild-type TIF-IA or the indicated point mutants were overexpressed in HEK293T cells and immunoprecipitated from cell lysates with anti-FLAG antibodies (M2 agarose). Co-precipitated Pol I and TIF-IB/SL1 were visualized on Western blots with anti-RPA116 and anti-TAFI110 antibodies.
# Immunoprecipitations were carried out from human cells overexpressing FLAG-tagged TIF-IA. Cells were lysed in IP buffer, cleared by centrifugation at 10,000×g for 30 min, and the supernatants were incubated for 4 hr at 4° C. with anti-FLAG (M2) agarose (Sigma). To analyze the interaction of TIF-IA with TIF-IB/SL1, the immunoprecipitates were washed with IP buffer and TIF-IB/SL1 was visualized on immunoblots with α-TAFI110 antibodies. To monitor the interaction of TIF-IA with Pol I, the immunoprecipitates were washed with IP buffer containing 600 mM NaCl and Pol I was analyzed on Western blots using antibodies against the second largest subunit of Pol I (RPA116) or PAF67 (Seither et al., J. Biol. Chem. 382 (2001), 1163-1170).
# Given the importance of mTOR-mediated alterations in the phosphorylation pattern on TIF-IA activity, one could predict that either phosphorylation of S199, dephosphorylation of S44 or both regulate the interaction of TIF-IA with the Pol I transcription apparatus. It was therefore examined whether the S→A or S→D point mutant(s) were capable of interacting with Pol I and/or TIF-IB/SL1. For this, TIF-IA was precipitated from cells overexpressing either FLAG-tagged wild-type TIF-IA or the respective S199 and S44 mutant(s), and co-precipitated Pol I and TIF-IB/SL1 were visualized on Western blots.
# Pol I transcription = assay: Complementation of Pol I transcription in nuclear extracts from rapamycin-treated FM3A cells; type: biochemical
# Experimental: (B) Complementation of transcriptional activity in nuclear extracts from rapamycin-treated cells. Transcription reactions contained nuclear extracts (30 μg) from untreated (NE) or rapamycin-treated (NERapa) FM3A cells. In lanes 3-7, fractions containing partially purified Pol I transcription factors were added to NERapa-containing reactions.
# (C) TIF-IA activates transcription in nuclear extracts form rapamycin-treated cells. Reactions were complemented with either 1 μl (lanes 2 and 5) of cellular TIF-IA (PL-650 fraction) or 20 ng (lanes 3 and 6) of immunopurified recombinant TIF-IA that has been expressed in SF9 cells.
# (A) mTOR rescues transcription in vitro. Pol I transcription was assayed in nuclear extracts from rapamycin-treated FM3A cells. Reactions were supplemented with 50 ng TIF-IA (lane 1) or 10 ng, 20 ng and 30 ng of HA-mTOR (lanes 3-5).
# (B) S6K1 activates Pol I transcription in extracts from rapamycin-treated cells. NERapa was supplemented with 50 ng TIF-IA (lane 1) or 100, 150 and 200 ng of GST-S6K1 (lanes 3-5) or GST-S6K1dd (lanes 6-8).
# Nuclear extracts were prepared from exponentially growing (8×10^5 cells/ml), density-arrested or PD98059-treated (CN Bioscience, Bad Soden, Germany) 40 μM, 0.5 hr) or rapamycin-treated FM3A cells (ATCC, Manassas, USA). 25 μl assays contained 50 ng of template DNA (pMr600/EcoRI), 30 μg nuclear extract proteins and 12 mM Hepes-KOH, [pH8.0], 0.1 mM EDTA, 5 mM MgCl2, 80 mM KCl, 10 mM creatine phosphate, 12% (v/v) glycerol, 0.66 mM each of ATP, GTP and CTP, 0.01 mM UTP and 0.5 μCi [α-^32P]UTP (5000 Ci/mmol). After incubation for 60 min at 30° C., RNA was extracted and analyzed on non-denaturing 5% polyacrylamide gels
# mTOR and S6K1 were purified from HEK293T cells overexpressing HA-tagged mTOR or GST/myc-tagged S6K1, respectively. 5×10^6 cells were lysed in 0.8 ml IP buffer, centrifuged at 10,000×g for 20 min, and the supernatants were incubated for 4 hr at 4° C. with either 15 μg anti-HA antibodies bound to 20 μl protein G-agarose (for HA-mTOR) or 20 μl packed GST-glutathione beads (for GST-myc-S6K1). […]
substance,measurement,setting,value
"TIF-IA: wild-type human transcription initiation factor TIF-IA, accession No. AJ272050",interaction with TIF-IB/SL1 (co-precipitated TAFI110),TIF-IB/SL1,interacted with both Pol I and TIF-IB/SL1
same,rescue of Pol I transcription in extracts from rapamycin-treated cells,Pol I transcription,relieved rapamycin-mediated transcriptional repression
same,rescue of Pol I transcription in extracts from rapamycin-treated cells,Pol I transcription; listed as recombinant TIF-IA,restored transcriptional activity
